# ChEMBL document CHEMBL4619731, “Identification of a new class of non-electrophilic TRPA1 agonists by a structure-based virtual screening approach” (Bioorg Med Chem Lett, 2020)
# Biological target: Transient receptor potential cation channel subfamily A member 1 (Homo sapiens) (UniProt O75762)
# Assay: Agonist activity at TRPA1 (unknown origin) at 1000 uM relative to AITC
# Chain of Transient receptor potential cation channel subfamily A member 1 (Homo sapiens) (O75762 whole entry): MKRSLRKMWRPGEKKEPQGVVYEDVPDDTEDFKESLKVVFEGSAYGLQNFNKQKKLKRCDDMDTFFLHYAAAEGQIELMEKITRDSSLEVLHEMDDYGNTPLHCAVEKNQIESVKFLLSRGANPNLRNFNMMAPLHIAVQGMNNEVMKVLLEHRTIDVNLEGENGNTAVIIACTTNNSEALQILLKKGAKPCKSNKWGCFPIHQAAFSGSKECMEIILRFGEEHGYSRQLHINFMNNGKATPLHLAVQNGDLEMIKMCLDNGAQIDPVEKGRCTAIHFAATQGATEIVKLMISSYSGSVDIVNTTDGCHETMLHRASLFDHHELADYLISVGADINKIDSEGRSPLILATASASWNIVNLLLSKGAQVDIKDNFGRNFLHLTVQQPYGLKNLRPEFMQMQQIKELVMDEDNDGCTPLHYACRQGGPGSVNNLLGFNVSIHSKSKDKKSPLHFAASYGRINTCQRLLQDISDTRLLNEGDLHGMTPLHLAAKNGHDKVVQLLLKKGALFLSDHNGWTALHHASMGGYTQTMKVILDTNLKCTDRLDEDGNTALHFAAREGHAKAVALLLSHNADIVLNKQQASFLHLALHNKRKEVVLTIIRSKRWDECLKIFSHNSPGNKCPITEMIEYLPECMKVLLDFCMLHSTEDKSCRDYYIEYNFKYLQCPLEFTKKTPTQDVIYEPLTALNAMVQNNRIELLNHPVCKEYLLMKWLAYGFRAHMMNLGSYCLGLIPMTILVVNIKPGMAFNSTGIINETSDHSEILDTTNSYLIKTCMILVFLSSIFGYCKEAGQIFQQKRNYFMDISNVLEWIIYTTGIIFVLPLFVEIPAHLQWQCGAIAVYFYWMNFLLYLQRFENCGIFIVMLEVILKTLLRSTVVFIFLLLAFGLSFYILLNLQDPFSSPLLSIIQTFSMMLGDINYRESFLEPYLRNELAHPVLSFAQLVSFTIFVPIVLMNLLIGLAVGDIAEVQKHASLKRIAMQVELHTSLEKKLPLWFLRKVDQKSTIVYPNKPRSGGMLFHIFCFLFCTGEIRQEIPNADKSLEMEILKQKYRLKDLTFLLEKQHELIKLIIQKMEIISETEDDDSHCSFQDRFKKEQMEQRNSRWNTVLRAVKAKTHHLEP
row,Structure (SMILES),Activity [%]
1,CCCCCCCCCCCCCC(=O)O,23
2,CCCCCCCCCC(C)=O,15
3,CCCCCCCCCCCCCC(C)=O,10
4,CCCCCCCC1CCCC(=O)O1 (centres undefined),20
5,CCCCCCCCC(C)=O,11
6,CCCCCCCC(=O)OCCC(C)C,12
7,CCCCCCCCCCCCO,12
8,CCCCCCCC(=O)OCC,9
9,C[C@@H]1O[C@@H](O[C@H]2[C@H](Oc3cc(O)c4c(c3)O[C@H](c3ccc(O)cc3)CC4=O)O[C@H](CO)[C@@H](O)[C@@H]2O)[C@H](O)[C@H](O)[C@H]1O,20
10,CCCCCCCCCCCC(C)=O,13
11,CCCCCCCCCC(C)O (centres undefined),16
12,Oc1cc(O)c2c(c1)O[C@H](c1ccc(O)c(O)c1)[C@H](O)[C@H]2c1c(O)cc(O)c2c1O[C@H](c1ccc(O)c(O)c1)[C@H](O)C2,22
13,CCCCC(CC)COC(=O)c1ccccc1O (centres undefined),14
14,CCCCCCCCC(=O)OCC,12
15,CCCCCCCCOC(=O)CCC,13
16,CCCCCC(=O)OCCC(C)C,16
17,COc1cc(C2OCC3C(c4cc(OC)c(O)c(OC)c4)OCC23)cc(OC)c1O (centres undefined),26
18,CCCCCCCCC(=O)OC,39
19,O=c1c(O[C@@H]2O[C@@H](CO)[C@H](O)[C@H]2O)c(-c2ccc(O)c(O)c2)oc2cc(O)cc(O)c12,41
20,CCCCCCCCOC(C)=O,8
21,CCCCCC(=O)OCC(C)C,23
22,CCCCCCCCCCC(C)=O,13
23,O=c1cc(-c2ccc(O)cc2)oc2c([C@@H]3O[C@H](CO)[C@@H](O)[C@H](O)[C@H]3O)c(O)cc(O)c12,15
24,O=c1cc(-c2ccc(O)cc2)oc2cc(O[C@@H]3O[C@H](CO)[C@@H](O)[C@H](O)[C@H]3O)c([C@@H]3O[C@H](CO)[C@@H](O)[C@H](O)[C@H]3O)c(O)c12,20
25,CCCCCCCC(=O)CC,15

row,Structure (SMILES),Activity [%]
1,CCCCCCCC1CCC(=O)O1 (centres undefined),27
2,CCOC(=O)c1ccco1,12
3,O=C(O[C@H]1Cc2c(O)cc(O)cc2O[C@@H]1c1ccc(O)c(O)c1)c1cc(O)c(O)c(O)c1,15
4,CCCCCCCOC(C)=O,8
5,CCCC(=O)OCCc1ccccc1,62
6,CCCCCCCCCC(=O)OCCC(C)C,13
7,CCCC(=O)OCC(C)C,19
8,OC[C@H]1O[C@H](O[C@H]2[C@H](O)[C@@H](O)[C@@H](O[C@H]3[C@H](O)[C@@H](O)C(O)O[C@@H]3CO)O[C@@H]2CO)[C@H](O)[C@@H](O)[C@@H]1O (some centres undefined),14
9,CCCCCCCC(=O)OC,33
10,CCCCCCCCCCCCCCCC(=O)OC,17
11,O=c1ccn([C@@H]2O[C@H](CO)[C@@H](O)[C@H]2O)c(=O)[nH]1,11
12,CC(=O)OC(C)C,10
13,CCCCC(CC)CO (centres undefined),60
14,CCOC(=O)CC(O)(CC(=O)OCC)C(=O)OCC,18
15,CCCCCCCCCC(=O)OC,14
16,CCCCCCCCCCO,71
17,CC(=O)OCC(COC(C)=O)OC(C)=O,17
18,CCCCCCCCCC(=O)OCC,16
19,CC(C)C(=O)OCCc1ccccc1,37
20,CCCCCCCCCCCC(=O)OCC,15
21,CC(O)CO (centres undefined),12
22,CCCCCCCCCCCO,20
23,C/C=C/C(=O)C1=C(C)C=CCC1(C)C,13
24,CCCCCCCCCCCCCC(=O)OCC,17
